The record followed here is PubChem BioAssay (NCI).

Among the test systems are MALME-3M melanoma; T-47D breast; OVCAR-5 ovarian; HCT-116 colon; HL-60(TB) leukemia; OVCAR-4 ovarian; UACC-257 melanoma; DU-145 prostate; OVCAR-8 ovarian; HOP-62 NSCLC; IGROV1 ovarian; OVCAR-3 ovarian; LOX IMVI melanoma; MOLT-4 leukemia; UO-31 renal; SNB-75 CNS; HS 578T breast.
What all share (test): NCI anticancer screen, dose series, 48 h

SMILES strings stand for the structures.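 Following 48 hours of exposure in 96-well plates, responses at five concentrations were used to interpolate endpoints linearly. The concentration for full growth arrest is given as TGI.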

For `Cc1nc(-c2cc3c(ccc4ccccc43)oc2=O)cc2c1c(=O)oc1ccc3ccccc3c12`, the TGI with MALME-3M melanoma, in the assay on T-47D breast, in the assay on OVCAR-5 ovarian, in the assay on HCT-116 colon, in the assay on HL-60(TB) leukemia and in the assay on OVCAR-4 ovarian was > 100 µM in each case. Moreover, the TGI in the assay with UACC-257 melanoma, with DU-145 prostate, with OVCAR-8 ovarian, with HOP-62 NSCLC, in the assay with IGROV1 ovarian and in the assay with OVCAR-3 ovarian was > 100 µM each time. The TGI in the assay with LOX IMVI melanoma, with MOLT-4 leukemia and with UO-31 renal was > 100 µM throughout.
With `COc1ccc2c(c1)CC[C@@H]1[C@@H]2CC[C@]2(C)C(=O)/C(=C/c3ccncc3)C[C@@H]12`, the TGI was 77.3 µM in the assay on MALME-3M melanoma; > 100 µM in the assay with T-47D breast; > 100 µM in the assay on OVCAR-5 ovarian; > 100 µM with HCT-116 colon; > 100 µM with OVCAR-4 ovarian; > 100 µM in the assay with UACC-257 melanoma. For the same compound, the TGI in the assay with DU-145 prostate is > 100 µM; with OVCAR-8 ovarian, > 100 µM; in the assay on HOP-62 NSCLC, 54.9 µM; with IGROV1 ovarian it was > 100 µM; with OVCAR-3 ovarian it was 44.2 µM; in the assay on SNB-75 CNS it was > 100 µM. The TGI in the assay with LOX IMVI melanoma, with MOLT-4 leukemia and with UO-31 renal was > 100 µM each time.
For the compound `C[n+]1ccc(-c2cc[n+](C)cc2)cc1`, the TGI with MALME-3M melanoma was 0.981 µM; in the assay with OVCAR-5 ovarian, 37.9 µM; in the assay with HCT-116 colon, > 44.5 µM; in the assay on HL-60(TB) leukemia, 24.8 µM; in the assay on OVCAR-4 ovarian, 3.21 µM; with UACC-257 melanoma, 3.09 µM. In addition, the TGI in the assay on OVCAR-8 ovarian is > 100 µM; with HOP-62 NSCLC, 66.5 µM; in the assay on IGROV1 ovarian, > 38.1 µM; in the assay on OVCAR-3 ovarian, > 46.6 µM; in the assay with SNB-75 CNS it was 99.8 µM; with LOX IMVI melanoma, > 48.1 µM. Moreover, the TGI with MOLT-4 leukemia and with UO-31 renal was > 100 µM throughout.
Regarding `O=C(Nc1nnc(-c2c(Cl)c(Cl)c(Cl)c(Cl)c2-c2nc3cc(C(=O)c4ccccc4)ccc3[nH]2)o1)c1ccccc1`, the TGI in the assay on T-47D breast amounted to 54.7 µM; with OVCAR-5 ovarian, 55.7 µM; with HCT-116 colon, 87.3 µM; with HL-60(TB) leukemia, 65.3 µM; with OVCAR-4 ovarian, 95.1 µM; with UACC-257 melanoma, 85.7 µM. Also, the TGI is 47.8 µM in the assay with DU-145 prostate; > 100 µM in the assay with OVCAR-8 ovarian; 26.3 µM in the assay with HOP-62 NSCLC; 42 µM with IGROV1 ovarian; 44.7 µM with OVCAR-3 ovarian; 41.4 µM in the assay with SNB-75 CNS. The TGI with LOX IMVI melanoma is 32 µM; in the assay on MOLT-4 leukemia, 72.5 µM; in the assay with UO-31 renal, > 100 µM.
As to `Cc1cc(=O)oc2c1cc(OCC(=O)OCCN1CCCCC1)c1occ(C)c12`, the TGI in the assay on MALME-3M melanoma, in the assay with OVCAR-5 ovarian, in the assay with HCT-116 colon, in the assay on HL-60(TB) leukemia, in the assay with OVCAR-4 ovarian and in the assay with UACC-257 melanoma was > 100 µM each time. Also, the TGI in the assay with OVCAR-8 ovarian, with OVCAR-3 ovarian, in the assay on SNB-75 CNS, in the assay with LOX IMVI melanoma, with MOLT-4 leukemia and with UO-31 renal was > 100 µM throughout.
As to `COc1ccc(C2CC(=O)CC(c3ccc(OC)cc3)C23C(=O)NC(=S)NC3=O)cc1` (stereo not given), the TGI in the assay on T-47D breast, in the assay with OVCAR-5 ovarian, in the assay with HCT-116 colon, in the assay on HL-60(TB) leukemia, in the assay on OVCAR-4 ovarian and with UACC-257 melanoma was > 100 µM each time. In addition, the TGI in the assay on DU-145 prostate, in the assay on OVCAR-8 ovarian, with HOP-62 NSCLC, in the assay with IGROV1 ovarian, with OVCAR-3 ovarian and in the assay on SNB-75 CNS was > 100 µM throughout. For the same compound, the TGI with LOX IMVI melanoma, in the assay with MOLT-4 leukemia and with UO-31 renal was > 100 µM in each case.
As for `COc1ccc(OC)c(-c2nc3ccccc3c(=O)[nH]2)c1`, the TGI in the assay with MALME-3M melanoma, with T-47D breast, in the assay on OVCAR-5 ovarian, with HCT-116 colon, in the assay with OVCAR-4 ovarian and in the assay with UACC-257 melanoma was > 100 µM in each case. The TGI in the assay with DU-145 prostate, in the assay on OVCAR-8 ovarian, in the assay on HOP-62 NSCLC, with IGROV1 ovarian, in the assay with OVCAR-3 ovarian and in the assay on HS 578T breast was > 100 µM throughout. Moreover, the TGI in the assay with SNB-75 CNS, in the assay on MOLT-4 leukemia and with UO-31 renal was > 100 µM in each case.
Take `CN1C(=O)[C@@H]2N(CSC2(C)C)C1=S`: the TGI in the assay with T-47D breast, in the assay on OVCAR-5 ovarian, with HCT-116 colon, with OVCAR-4 ovarian, in the assay on UACC-257 melanoma and in the assay with DU-145 prostate was > 100 µM in each case. The TGI with OVCAR-8 ovarian, in the assay on HOP-62 NSCLC, with IGROV1 ovarian, in the assay on OVCAR-3 ovarian, in the assay on SNB-75 CNS and with MOLT-4 leukemia was > 100 µM in each case. Also, the TGI in the assay on UO-31 renal was > 100 µM.
Turning to `CCOC(CI)O[C@@H]1C=C[C@H](OC(C)=O)C1` (stereo not given in full), the TGI with MALME-3M melanoma, with T-47D breast, with OVCAR-5 ovarian, in the assay on HCT-116 colon, in the assay with OVCAR-4 ovarian and in the assay with UACC-257 melanoma was > 100 µM throughout. Besides, the TGI in the assay with DU-145 prostate, in the assay on OVCAR-8 ovarian, in the assay on HOP-62 NSCLC, with OVCAR-3 ovarian, in the assay on SNB-75 CNS and in the assay on MOLT-4 leukemia was > 100 µM throughout. Further, the TGI in the assay on UO-31 renal is > 100 µM.
Take `Cc1nc2ccccc2c(=O)n1NC(=S)Nc1cccc(Cl)c1`: the TGI with MALME-3M melanoma, with OVCAR-5 ovarian, in the assay with HCT-116 colon, in the assay with HL-60(TB) leukemia, in the assay with OVCAR-4 ovarian and with UACC-257 melanoma was > 100 µM each time. Besides, the TGI in the assay on OVCAR-8 ovarian, in the assay with HOP-62 NSCLC, in the assay with IGROV1 ovarian, in the assay with SNB-75 CNS, in the assay on LOX IMVI melanoma and with MOLT-4 leukemia was > 100 µM throughout. In addition, the TGI in the assay with UO-31 renal was > 100 µM.
